Source: a melting point compilation (Tetko et al.; mined from patent text by program, amines drawn as free bases though some values may be those of a salt)

| melting point [°C] | Compound |
| --- | --- |
| 164 to 166 | O=C(CCc1cccc([N+](=O)[O-])c1)c1c(O)c2cccnc2n(-c2ccccc2)c1=O |
| 145 | CCOC(=O)c1ccc(-c2ccc(-c3ccccc3)c(-c3cc4c(cc3O)C(C)(C)CCC4(C)C)c2)cc1 |
| 86 to 87 | COc1ccc(C(=O)c2sccc2O)cc1 |
| 215 to 217 | O=C(Nc1ccc(C(=O)N2Cc3ccccc3Cc3ccccc32)cc1)c1ccc(F)cc1F |
| 156 to 157 | CCC1COc2c(Cc3ccc(C(C)C)cc3)c(C)c(NC(=O)CC(C)(C)C)c(C)c21 (stereo not given) |
| 128 to 133 | CCc1nc(N)nc(N)c1CCCc1cccc(-c2ccccc2)c1 |
| 229 to 231 | CCn1ncc2c3[nH]nc4c3c(nc21)CCc1ccccc1-4 |
| 211 to 215 | c1ccc(-c2cc(-c3csc(Nc4ccccn4)n3)on2)cc1 |
| 113 to 115 | COc1cc(Cl)c2c(-c3ccccc3F)noc2c1 |
| 201 to 202 | N#CCc1c[nH]c2cccnc12 |
| 77 to 78 | FC(F)(F)c1cccc(OCc2ccc3ccccc3n2)c1 |
| 135 to 136 | CCCc1nc(C#N)c(N)n1CC(C)C |
| 83 to 86 | Cc1ncccc1C(C#N)N1CCN(C(=O)CC(NC(=O)Cc2cccc(OCc3ccc4ccccc4n3)c2)c2ccccc2)CC1 (stereo not given) |
| 105 | CCC(O)(c1cc(OC)cc(OCc2ccc3ccccc3c2)c1)c1nccs1 (stereo not given) |
| 145 to 147 | Clc1nc(-c2cccnc2)sc1-c1cccnc1 |
| 133 to 135 | CCOC(=O)Cc1c2cc(F)ccc2n2c(-c3ccc(S(C)=O)cc3)nccc12 (stereo not given) |
| 74 | COC(=O)c1ccccc1Oc1ccc([N+](=O)[O-])cc1 |
| 179 to 180 | COc1cc2c(cc1OC)CCC(C(=O)NO)=C2 |
| 176 to 179 | Cc1nc2cccc(OCC(C)(C)C(=O)NCC(C)C)c2c(N)c1C(=O)O |
| 83 to 85 | CN(C)Cc1ccc(CSCCN=CNS(=O)(=O)c2ccccc2)o1 |
| 114 to 115 | COc1ccc([C@H]2CC[C@H](c3ccc(OC)c(OC)c3)O2)cc1OC (relative stereo) |
| 150 to 152 | CCc1oc(C(c2ccccc2)c2ccccc2)nc1CC1CCc2c(cccc2OCC(=O)O)C1 (stereo not given) |
| 151 to 153 | Cc1ccccc1C(=O)c1cc2c(c(Br)c1O)CCCC2 |
| 188 to 190 | CCCn1c(COCC)nc2c(N)nc3ccc(OCCCN4CCCC4=O)cc3c21 |

| melting point [°C] | Compound |
| --- | --- |
| 185 to 188 | CCOCc1nc2c(N)nc3ccccc3c2n1CCCCS(=O)(=O)N1CCCCC1 |
| 106 to 118 | CCCN1NC(c2ccccc2)C2=C1C(=Cc1ccccc1)CSC2 (stereo not given) |
| 174 to 176 | CC(C)CCOCc1cc(N2N=C(C(N)=O)NC2c2ccccc2)ccc1Cl (stereo not given) |
| 136 | CCOC(=O)c1cnc2c(-c3cccc(Cl)c3)cnn2c1 |
| 63 to 65 | CCCS(=O)(=O)Nc1cc(OC[C@@H](O)CNC2CCN(c3ccc(C(=O)OCC)cc3)CC2)ccc1O |
| 125 to 127 | CNc1ccsc1C(=O)CS(C)=O (stereo not given) |
| 169 to 170 | O=C(O)COc1ccc2c(c1)-c1nc(S(=O)(=O)C(c3ccccc3)c3ccccc3)sc1CC2 |
| 128 | CC(C)c1ccc(N(Cc2cnn(CC(F)(F)F)c2)C(=O)C2CCCc3c(O)cccc32)cn1 (stereo not given) |
| 130 to 133 | O=C(O)C(=O)c1cnsn1 |
| > 250 | CCOC(=O)c1ccc2cc(N)ccn2c1=O |
| 304 to 306 | COc1ccc(-n2cc(C#N)c(=O)[nH]c2=O)cc1 |
| 124 to 125 | O=C(O)CCc1cn(Cc2ccc(OCc3ccncc3)cc2)cc1-c1ccccc1 |
| 150 to 152 | N#Cc1cc(-c2ccoc2)c2ccc(COc3cc(F)cc(-c4ccccc4)c3)cc2n1 |
| 176 to 178 | Clc1ccc(-c2cc(C3CCN(CC4CC4)CC3)n[nH]2)cc1 |
| 167 to 169 | COc1ccc(CCCCOc2cc(-c3nc4cc(C(=O)O)ccc4[nH]3)ccc2OC)cc1 |
| 189 to 191 | COc1ccccc1C1CCNC(N)=N1 (stereo not given) |
| 212 to 215 | CCOC(=O)C1=C(C)NC(C)=C(C(=O)OC(C)C)C1c1csc2ccncc12 (stereo not given) |
| 210 | Cc1cc(-c2ccc(Cl)c(Cl)c2)nc(-n2cnc(-c3cccc(S(N)(=O)=O)c3)c2)n1 |
| 163 to 164 | COc1cccc(CC(=O)O)c1OCc1cc(OCc2ccc3ccccc3n2)nn1C(C)C |
| 116 to 118 | CCCC(C(N)=O)n1cc(C)c(-c2ccccc2)n1 (stereo not given) |
| 185 to 186 | NC(=O)c1cc2c(cc1OCC1CCCCC1)OCCCC2=O |
| 174 to 175 | CCCc1ncc(/C=C(\Cc2cccs2)c2nnn[nH]2)n1Cc1ccccc1Cl |
| 60 to 64 | COc1ccc(Oc2c(C)cc(O)cc2C)cc1C(C)C |
| 240 to 242 | CC(=O)c1cc2c(s1)CCc1cc(=O)n(-c3ccc(C)cc3)nc1-2 |

| melting point [°C] | Compound |
| --- | --- |
| 240 to 241 | O=C(O)c1cn(C2CC2)c2nc3cc(N4CCNC(c5ccco5)C4)c(F)cc3cc2c1=O (racemic) |
| 180 to 185 | O=C(O)c1ccc(OCCCc2ccc(O)c(O)c2)cc1 |
| 166 to 167 | CN(C)N=Nc1c[nH]c(=O)[nH]c1=O |
| 125 to 130 | CCOP(=O)(CCN1CCC(N(CCCN)S(=O)(=O)c2ccc(Nc3nccc(Nc4ccc(F)cc4)n3)cc2)CC1)OCC |
| 166 to 167 | Cc1cccc(-c2nsc(C(=O)O)c2C(=O)O)c1 |
| 240 to 250 | CCn1c(-c2ccc(N)cc2)n[nH]c1=S |
| 167 to 170 | Cc1cnc2c(c1)S(=O)(=O)N(Cc1ccccc1)C2=O |
| 354 to 355 | O=C(O)c1cccc(N2C(=O)c3cccc([N+](=O)[O-])c3C2=O)c1 |
| 197 to 200 | CCOC(=O)c1[nH]ccc1N |
| 100 to 101 | COc1ccc(CC(C)CC(=O)O)c(C(C)C)c1OC (stereo not given) |
| 247 to 248 | Cn1c(=O)c(-c2c(Cl)cccc2Cl)cc2cnc(Nc3cccnc3)nc21 |
| 231 to 233 | Cc1cccc(N(C)c2n[nH]c3ncnc(Nc4cccc(Cl)c4)c23)n1 |
| 147 | CCOc1ccc([N+](=O)[O-])c(NC23CC4CC(CC(C4)C2)C3)c1 |
| 105 | Cn1ncc2c(C(F)F)cc(Cl)nc21 |
| 82 to 84 | CC(=O)OCC1OC(n2cc(C(Br)=CI)c(=O)[nH]c2=O)CC1OC(C)=O (stereo not given) |
| 116 to 117 | O=C(Nc1ccc(Oc2ccnc(NCC3CC3)n2)c2ccccc12)c1cc(F)cc(N2CCOCC2)c1 |
| 170 to 174 | CCOC(=O)N1CCN(C2=Nc3ccc(Br)c4cccc2c34)CC1 |
| 170 | O=C(Oc1ccc(Cl)cc1)c1c2ccccc2nc2ccccc12 |
| 225 to 226 | O=C(O)C1Cc2cc3c(-c4ccc(F)cc4)noc3c(Cl)c2O1 (stereo not given) |
| 131 to 135 | Cn1cc(-c2ccccc2)c(=O)c(-c2cc(Cl)cc(Cl)c2)c1 |
| 126 to 129 | CCc1c(C(C)C)nc(C(C)C)c(CO)c1-c1ccc(F)cc1 |
| 145 to 147 | CC(C)(C)OC(=O)Nc1sc(-c2cccnc2)nc1C(F)(F)F |
| 168 to 172 | CCCCCCCCCCCCOC(=O)NCCC(=O)NC(Cc1c[nH]cn1)C(=O)O (stereo not given) |
| 200 to 203 | NC(=O)c1nnn(Cc2ccc(C(Cl)=C(Cl)Cl)cc2)c1N |

| melting point [°C] | Compound |
| --- | --- |
| 42 to 43 | Cc1cccc(C(=O)CC(=O)C2CCCCC2)c1O |
| 64 to 66 | CCOC(=O)C(C)(C)Cc1cccnc1 |
| 76 to 77 | Clc1ccccc1Oc1c(Cl)ncnc1Cl |
| 228 to 231 | CCC1CCSc2ccc(Nc3ncc(Cl)c(Nc4ccccc4C(=O)NC)n3)nc2C1 (stereo not given) |
| 177 | Cc1ccccc1-n1cc(-c2ccccc2)c(CC(=O)O)n1 |
| 135 to 137 | CSc1onc(-c2ccccc2)c1-c1ccc(S(N)(=O)=O)cc1 |
| 120 to 121 | O=C(NC1CC1)c1cccc(-c2cccc3oc(Cc4cccc(C(F)(F)F)c4)cc23)c1 |
| 170 | CN(C)C=NC(=S)NC1CCN(C(=O)OC(C)(C)C)CC1 |
| 126 to 127 | CCC(C)N1CN(C)C(=O)N(c2nc3c(s2)C(=O)CC(C)(C)C3)C1 (stereo not given) |
| 174 to 176 | Cc1cccc(C)c1N=CNc1c(C)cccc1C |
| 180 | CCCCC[C@H]1CC[C@H](c2ccc(-c3ccc(CO)cc3)cc2)CC1 |
| 148 to 150 | COc1ccc(OC)c(Sc2nc3c(N)ncnc3n2CCC=C(C)C)c1 |
| 175 to 176 | O=S(=O)(c1ccccc1)N1CCC(C(Nc2ccc(F)cc2)c2ccc(F)cc2)CC1 (stereo not given) |
| 184 to 186 | Nc1ccccc1Nc1ccc(Nc2nccs2)cc1 |
| 240 to 242 | COc1ccc2c(c1)c(-c1cc3cc(-c4ccccc4)cnc3[nH]1)cn2C |
| 180 to 183 | N#Cc1c(N2CCc3ccccc3CC2)nc(COC2CCCCO2)[nH]c1=O (stereo not given) |
| 83 to 84 | CCn1ncc2nc(C(=O)OCC#N)c(C)nc21 |
| 211 to 213 | COc1cccc([C@H]2O[C@H](CC(=O)Nc3nc(C)c(C(=O)OC(C)(C)C)s3)C(=O)N(CC(C)(C)COC(C)=O)c3ccc(Cl)cc32)c1OC |
| 43.2 to 43.6 | CCCCCCCCC(=O)Oc1ccc(-c2ccc(C#N)cc2)cc1 |
| 210 to 212 | NC(=O)OC1CCN(C(=O)Cn2c(=O)sc3ccc(Cl)cc32)CC1 |
| 77 to 78 | COC(=O)CC(=O)NC1CCCCC1 |
| 161 to 163 | C=C(C)CN1C(=O)c2cscc2Nc2ccccc21 |
| 50 to 52 | COc1cc(OC)nc(SC)n1 |

| Compound | melting point [°C] |
| --- | --- |
| CCC(=O)N1N=C(c2ccc(N)c(C)c2)c2cc3c(cc2C[C@@H]1C)OCO3 | 176 to 178 |
| CC12CCC(O[Si](C)(C)C(C)(C)C)CC1=CC(=O)C1C2CCC2(C)C(O[Si](C)(C)C(C)(C)C)CCC12 (stereo not given) | 99 to 101 |
| COc1cc2c(cc1OC)CC(NCC(N)=O)C2 | 135 to 138 |
| CCNC(=O)C[C@@H]1N=C(c2ccc(Cl)cc2)c2cc(OC)ccc2-n2c(C)nnc21 | > 140 |
| O=[N+]([O-])c1cccc(C(O)C(Cl)(Cl)Cl)c1 (stereo not given) | 91 to 95 |
